Data: ChEMBL document CHEMBL4002586, “Aurone Mannich base derivatives as promising multifunctional agents with acetylcholinesterase inhibition, anti-β-amyloid aggragation and neuroprotective properties for the treatment of Alzheimer's disease” (Eur J Med Chem, 2017)

How the values were obtained:
[1] = target: butyrylcholinesterase (BuChE) (Rattus norvegicus, UniProt Q9JKC1); test: Inhibition of BuChE in rat serum at 50 uM using butyrylthiocholine as substrate measured after 15 mins by Ellman's method relative to control; conditions: probe butyrylthiocholine
Sequence of butyrylcholinesterase (BuChE) (Q9JKC1 whole entry): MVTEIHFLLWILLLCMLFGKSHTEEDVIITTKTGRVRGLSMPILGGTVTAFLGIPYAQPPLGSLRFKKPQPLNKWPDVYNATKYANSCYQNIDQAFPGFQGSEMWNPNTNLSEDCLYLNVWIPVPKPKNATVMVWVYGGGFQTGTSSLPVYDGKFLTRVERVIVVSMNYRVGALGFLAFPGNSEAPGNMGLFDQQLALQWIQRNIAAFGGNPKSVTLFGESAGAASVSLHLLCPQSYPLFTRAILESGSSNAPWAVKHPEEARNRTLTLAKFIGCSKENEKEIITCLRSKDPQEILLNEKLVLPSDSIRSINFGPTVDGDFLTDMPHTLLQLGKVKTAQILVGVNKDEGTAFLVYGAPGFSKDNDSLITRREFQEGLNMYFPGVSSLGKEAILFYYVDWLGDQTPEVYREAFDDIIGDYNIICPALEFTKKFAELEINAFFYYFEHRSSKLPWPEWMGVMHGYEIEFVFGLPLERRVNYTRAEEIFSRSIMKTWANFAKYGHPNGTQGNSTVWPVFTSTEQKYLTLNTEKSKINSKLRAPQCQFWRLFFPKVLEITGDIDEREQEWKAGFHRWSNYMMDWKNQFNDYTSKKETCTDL

[2] = Antioxidant activity assessed as inhibition of AAPH-induced peroxyl radical generation at 5 uM measured as trolox equivalent preincubated for 15 mins followed by AAPH addition measured every 60 secs for 90 mins by ORAC-FL assay; format: functional
[3] = target: T1, Amine oxidase [flavin-containing] B (Homo sapiens, UniProt P27338); test: Inhibition of recombinant human MAO-B expressed in baculovirus infected BTI insect cells at 10 uM using kynuramine as substrate incubated for 30 mins by fluorescence assay relative to control; conditions: 0.5 h
T1 sequence (P27338 whole entry): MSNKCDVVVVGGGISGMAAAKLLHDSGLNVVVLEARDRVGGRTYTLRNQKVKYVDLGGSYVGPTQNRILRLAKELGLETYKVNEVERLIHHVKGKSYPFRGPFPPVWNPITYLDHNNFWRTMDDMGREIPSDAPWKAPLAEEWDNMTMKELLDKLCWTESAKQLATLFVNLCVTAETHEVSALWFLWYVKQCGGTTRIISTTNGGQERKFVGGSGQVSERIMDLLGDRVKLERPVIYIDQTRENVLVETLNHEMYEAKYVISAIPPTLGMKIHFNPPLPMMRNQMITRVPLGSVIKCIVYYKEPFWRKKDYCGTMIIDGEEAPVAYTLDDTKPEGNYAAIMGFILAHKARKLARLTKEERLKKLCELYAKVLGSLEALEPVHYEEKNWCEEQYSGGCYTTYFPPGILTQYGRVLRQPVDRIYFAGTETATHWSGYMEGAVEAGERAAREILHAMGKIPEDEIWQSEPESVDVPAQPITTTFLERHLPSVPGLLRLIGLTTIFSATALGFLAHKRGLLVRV

[4] = target: T2, Amine oxidase [flavin-containing] A (Homo sapiens, UniProt P21397); test: Inhibition of recombinant human MAO-A expressed in baculovirus infected BTI insect cells at 10 uM using kynuramine as substrate incubated for 30 mins by fluorescence assay relative to control; conditions: 0.5 h
T2 sequence (P21397 whole entry): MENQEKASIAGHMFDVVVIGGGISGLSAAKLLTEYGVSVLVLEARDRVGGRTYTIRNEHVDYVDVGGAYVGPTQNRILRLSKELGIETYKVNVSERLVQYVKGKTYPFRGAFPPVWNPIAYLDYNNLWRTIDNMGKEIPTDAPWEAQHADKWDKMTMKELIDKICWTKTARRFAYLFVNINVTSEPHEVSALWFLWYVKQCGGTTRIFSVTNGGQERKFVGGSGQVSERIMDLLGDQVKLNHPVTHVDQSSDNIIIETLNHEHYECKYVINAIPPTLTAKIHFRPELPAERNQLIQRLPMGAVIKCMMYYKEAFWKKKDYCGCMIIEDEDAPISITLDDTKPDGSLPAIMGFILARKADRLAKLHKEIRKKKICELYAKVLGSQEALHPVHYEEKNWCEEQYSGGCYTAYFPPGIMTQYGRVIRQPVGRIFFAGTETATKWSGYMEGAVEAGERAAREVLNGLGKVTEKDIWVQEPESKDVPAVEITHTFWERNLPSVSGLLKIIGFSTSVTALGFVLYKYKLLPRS

[5] = target: Acetylcholinesterase (Electrophorus electricus) (UniProt O42275); test: Inhibition of Electrophorus electricus AChE at 50 uM using acetylthiocholine iodide as substrate measured after 15 mins by Ellman's method relative to control
Sequence of Acetylcholinesterase (Electrophorus electricus) (O42275 24-633 limits assumed): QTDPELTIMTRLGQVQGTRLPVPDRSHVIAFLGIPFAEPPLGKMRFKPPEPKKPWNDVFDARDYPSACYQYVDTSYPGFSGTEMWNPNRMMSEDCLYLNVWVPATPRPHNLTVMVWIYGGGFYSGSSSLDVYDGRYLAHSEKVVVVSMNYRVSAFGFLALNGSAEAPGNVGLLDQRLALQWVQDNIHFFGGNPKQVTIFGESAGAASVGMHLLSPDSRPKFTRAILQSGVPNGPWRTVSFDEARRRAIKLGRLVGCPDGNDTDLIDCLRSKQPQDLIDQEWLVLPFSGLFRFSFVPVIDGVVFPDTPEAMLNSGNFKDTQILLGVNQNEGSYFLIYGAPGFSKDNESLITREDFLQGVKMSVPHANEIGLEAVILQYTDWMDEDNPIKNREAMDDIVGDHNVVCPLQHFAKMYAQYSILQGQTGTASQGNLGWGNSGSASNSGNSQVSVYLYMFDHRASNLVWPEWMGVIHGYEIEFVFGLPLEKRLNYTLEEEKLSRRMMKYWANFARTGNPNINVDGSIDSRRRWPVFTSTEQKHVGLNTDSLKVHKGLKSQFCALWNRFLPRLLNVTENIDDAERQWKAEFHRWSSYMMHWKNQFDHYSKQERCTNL

[6] = target: T3, Acetylcholinesterase (Rattus norvegicus) (UniProt P37136); test: Inhibition of AChE in rat brain cortex homogenates at 50 uM using acetylthiocholine iodide as substrate in presence of BuChE inhibitor tetraisopropyl pyrophosphoramide measured after 15 mins by Ellman's method relative to control
T3 sequence (whole entry): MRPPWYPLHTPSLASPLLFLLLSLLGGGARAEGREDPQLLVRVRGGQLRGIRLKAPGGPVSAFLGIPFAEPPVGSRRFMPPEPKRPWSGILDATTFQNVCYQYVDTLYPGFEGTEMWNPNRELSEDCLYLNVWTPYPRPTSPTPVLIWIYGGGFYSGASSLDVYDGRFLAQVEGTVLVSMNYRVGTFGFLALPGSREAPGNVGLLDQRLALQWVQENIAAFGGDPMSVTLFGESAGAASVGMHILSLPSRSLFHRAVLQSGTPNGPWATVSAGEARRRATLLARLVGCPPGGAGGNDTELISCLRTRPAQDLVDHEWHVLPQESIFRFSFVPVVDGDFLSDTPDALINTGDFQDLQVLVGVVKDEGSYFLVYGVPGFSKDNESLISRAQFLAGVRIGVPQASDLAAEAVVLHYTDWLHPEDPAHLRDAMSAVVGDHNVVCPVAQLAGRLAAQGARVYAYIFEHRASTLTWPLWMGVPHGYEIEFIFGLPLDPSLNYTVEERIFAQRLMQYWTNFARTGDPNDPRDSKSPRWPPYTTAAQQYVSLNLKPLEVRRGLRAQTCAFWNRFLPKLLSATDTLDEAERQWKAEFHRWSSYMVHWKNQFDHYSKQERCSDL

[7] = Inhibition of Cu2+-mediated aggregation of human amyloid beta (1 to 42 residues) at 25 uM after 24 hrs by thioflavin T-based fluorometric assay relative to control; format: functional
[8] = target: Amyloid-beta precursor protein (Homo sapiens) (UniProt P05067); test: Inhibition of self-induced aggregation of HFIP-treated human amyloid beta (1 to 42 residues) at 25 uM after 24 hrs by thioflavin T-based fluorometric assay relative to control
Sequence of Amyloid-beta precursor protein (Homo sapiens) (P05067 whole entry, the tested form may be a part): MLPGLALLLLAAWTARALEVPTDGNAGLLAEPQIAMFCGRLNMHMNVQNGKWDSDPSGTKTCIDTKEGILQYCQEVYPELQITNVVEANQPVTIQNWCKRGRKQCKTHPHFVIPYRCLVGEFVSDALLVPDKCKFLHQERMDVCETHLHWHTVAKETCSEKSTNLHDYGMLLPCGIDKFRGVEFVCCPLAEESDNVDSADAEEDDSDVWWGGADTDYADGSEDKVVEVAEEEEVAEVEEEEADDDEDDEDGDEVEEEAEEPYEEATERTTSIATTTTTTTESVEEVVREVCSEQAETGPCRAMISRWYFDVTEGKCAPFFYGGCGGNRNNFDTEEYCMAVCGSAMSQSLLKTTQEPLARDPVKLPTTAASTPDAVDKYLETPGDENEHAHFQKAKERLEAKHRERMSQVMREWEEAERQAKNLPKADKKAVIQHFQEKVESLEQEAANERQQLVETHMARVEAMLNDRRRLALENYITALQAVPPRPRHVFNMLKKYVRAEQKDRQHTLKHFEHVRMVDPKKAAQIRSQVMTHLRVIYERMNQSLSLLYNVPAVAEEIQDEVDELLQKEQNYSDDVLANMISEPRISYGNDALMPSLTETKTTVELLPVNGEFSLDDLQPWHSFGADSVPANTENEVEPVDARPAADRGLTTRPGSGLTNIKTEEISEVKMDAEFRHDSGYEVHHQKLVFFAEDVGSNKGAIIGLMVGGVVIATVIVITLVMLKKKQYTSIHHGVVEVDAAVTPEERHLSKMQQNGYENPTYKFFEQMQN

[9] = target: T4, Acetylcholinesterase (Rattus norvegicus, UniProt P37136); test: Inhibition of AChE in rat brain cortex homogenates using acetylthiocholine iodide as substrate in presence of BuChE inhibitor tetraisopropyl pyrophosphoramide measured after 15 mins by Ellman's method
T4 sequence (P37136 whole entry): T3 sequence (whole entry)

[10] = target: Acetylcholinesterase (Homo sapiens, UniProt P22303); test: Inhibition of human erythrocyte AChE using acetylthiocholine iodide as substrate measured after 15 mins by Ellman's method
Sequence of Acetylcholinesterase (Homo sapiens, UniProt P22303) (P22303 whole entry): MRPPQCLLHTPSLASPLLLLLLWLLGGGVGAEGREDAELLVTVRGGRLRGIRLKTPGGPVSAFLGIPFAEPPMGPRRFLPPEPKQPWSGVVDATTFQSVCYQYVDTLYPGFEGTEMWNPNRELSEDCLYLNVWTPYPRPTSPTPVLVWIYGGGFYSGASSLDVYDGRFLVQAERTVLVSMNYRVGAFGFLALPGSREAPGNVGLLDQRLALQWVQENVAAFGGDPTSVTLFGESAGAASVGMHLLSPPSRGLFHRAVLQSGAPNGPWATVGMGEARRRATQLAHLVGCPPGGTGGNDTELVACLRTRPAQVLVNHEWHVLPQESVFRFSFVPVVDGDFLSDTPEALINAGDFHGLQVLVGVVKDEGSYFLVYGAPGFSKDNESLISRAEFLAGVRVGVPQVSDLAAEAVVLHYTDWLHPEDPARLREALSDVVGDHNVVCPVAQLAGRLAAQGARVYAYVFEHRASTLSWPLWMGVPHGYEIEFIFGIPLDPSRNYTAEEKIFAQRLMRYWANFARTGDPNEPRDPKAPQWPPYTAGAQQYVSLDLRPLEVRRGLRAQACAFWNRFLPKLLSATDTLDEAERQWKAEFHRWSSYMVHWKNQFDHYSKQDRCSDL

[11] = target: Acetylcholinesterase (Electrophorus electricus, UniProt O42275); test: Inhibition of Electrophorus electricus AChE using acetylthiocholine iodide as substrate measured after 15 mins by Ellman's method
Sequence of Acetylcholinesterase (Electrophorus electricus, UniProt O42275) (O42275 whole entry): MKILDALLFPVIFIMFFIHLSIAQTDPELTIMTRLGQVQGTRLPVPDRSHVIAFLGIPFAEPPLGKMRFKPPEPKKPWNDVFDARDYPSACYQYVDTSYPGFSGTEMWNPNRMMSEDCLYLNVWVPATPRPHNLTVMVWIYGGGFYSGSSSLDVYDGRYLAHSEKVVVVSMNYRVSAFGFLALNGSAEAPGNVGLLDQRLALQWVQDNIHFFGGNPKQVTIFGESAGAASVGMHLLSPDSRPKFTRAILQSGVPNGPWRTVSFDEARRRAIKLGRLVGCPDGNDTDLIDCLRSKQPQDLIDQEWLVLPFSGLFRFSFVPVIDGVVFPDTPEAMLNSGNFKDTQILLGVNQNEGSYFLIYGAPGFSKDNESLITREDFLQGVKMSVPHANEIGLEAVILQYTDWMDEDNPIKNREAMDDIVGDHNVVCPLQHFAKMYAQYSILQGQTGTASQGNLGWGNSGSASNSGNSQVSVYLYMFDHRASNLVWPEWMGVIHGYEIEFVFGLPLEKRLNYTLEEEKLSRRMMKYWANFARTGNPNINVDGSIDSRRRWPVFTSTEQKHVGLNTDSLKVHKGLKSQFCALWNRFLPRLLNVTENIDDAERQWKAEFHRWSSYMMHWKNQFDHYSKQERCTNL

Row | SMILES | inhibition at 0.25 h, 50 µM [1] [%] | Activity [2] [equiv] | inhibition at 10 µM [3] [%] | inhibition at 10 µM [4] [%] | inhibition [5] [%] | inhibition [6] [%] | inhibition [7] [%] | inhibition [8] [%] | IC50 [9] [µM] | IC50 [10] [µM] | IC50 [11] [µM]
1 | COc1cc2c(cc1OC)C(=O)/C(=C/c1ccc(CN3CCN(Cc4ccccc4)CC3)c(O)c1)O2 | < 5 | 1.01 | 6.9 | 15.3 | < 5 | < 5 | 38.7 | 41.8 | – | – | –
2 | COc1cc(/C=C/C(=O)CC(=O)/C=C/c2ccc(O)c(OC)c2)ccc1O | – | – | – | – | – | – | 67.2 | – | – | – | –
3 | COc1cc2c(cc1OC)C(=O)/C(=C/c1ccc(CN(C)C)c(O)c1)O2 | < 5 | 2.02 | 2.23 | 20.2 | – | – | 32.2 | 46.9 | 25.8 | 24.3 | 8.93
4 | CCN1CCN(Cc2ccc(/C=C3\Oc4cc(OC)c(OC)cc4C3=O)cc2O)CC1 | < 5 | 1.61 | 2.6 | 15.1 | – | – | 39.7 | 49.1 | 24 | 32.1 | 11.7
5 | COc1cc2c(cc1OC)C(=O)/C(=C/c1ccc(CN3CCCC3)c(O)c1)O2 | 19 | 1.79 | 37.9 | 62.9 | – | – | 38.8 | 57.2 | 0.246 | 1.32 | 2.7
6 | CCN(Cc1ccccc1)Cc1ccc(/C=C2\Oc3cc(OC)c(OC)cc3C2=O)cc1O | < 5 | 1.17 | 23.9 | 17 | – | – | 60.9 | 72.5 | 94.1 | – | 35.8
7 | COc1cc2c(cc1OC)C(=O)/C(=C/c1cccc(O)c1)O2 | < 5 | 1.51 | 37 | 17.2 | – | – | 28.9 | 33.6 | 131 | – | 36.3
8 | CCN(Cc1ccc(N(C)C)cc1)Cc1ccc(/C=C2\Oc3cc(OC)c(OC)cc3C2=O)cc1O | < 5 | 2.02 | 19.2 | 6.8 | – | – | 68.5 | 80.5 | 288 | – | 431
9 | COc1cc2c(cc1OC)C(=O)/C(=C/c1ccc(O)cc1)O2 | < 5 | 1.52 | 36.1 | 12.1 | – | – | 26.7 | 15.7 | 297 | – | 64.4
10 | CCN(Cc1ccc(/C=C2\Oc3cc(OC)c(OC)cc3C2=O)cc1O)Cc1ccccc1OC | 5.21 | 1.47 | 26.4 | 9.7 | – | – | 71.2 | 74.9 | 44.9 | – | 37
11 | COc1cc2c(cc1OC)C(=O)/C(=C/c1ccc(CN3CCN(C)CC3)c(O)c1)O2 | < 5 | 1.78 | 1 | 9.2 | – | – | 35.1 | 38.6 | 16.3 | 14 | 11.9
12 | CCN(CC)Cc1ccc(/C=C2\Oc3cc(OC)c(OC)cc3C2=O)cc1O | < 5 | 2.06 | 7.2 | 22.7 | – | – | 23.6 | 47.5 | 0.108 | 0.7 | 0.486
13 | COc1cc2c(cc1OC)C(=O)/C(=C/c1ccc(CN(C)Cc3ccccc3)c(O)c1)O2 | < 5 | 1.62 | 17.8 | 19.4 | – | – | 70.1 | 51.5 | 20 | 26.3 | 9.1
14 | COc1ccccc1CN(C)Cc1ccc(/C=C2\Oc3cc(OC)c(OC)cc3C2=O)cc1O | < 5 | 1.35 | 8.4 | 16.3 | – | – | 55.8 | 55.1 | 74.4 | – | 28.9
15 | COc1cc2c(cc1OC)C(=O)/C(=C/c1ccc(CN3CCOCC3)c(O)c1)O2 | < 5 | 1.58 | 3.3 | 12.1 | – | – | 28.5 | 31.5 | 8.66 | 6 | 20.2
